# According to ChEMBL document CHEMBL4699657, “Fragment-to-Lead Medicinal Chemistry Publications in 2019” (J Med Chem, 2020):
# pIC50: −log10 of the molar value.
# Experiment: Inhibition of Influenza A/California/04/09 H1N1 PA endonuclease (1 to 204 residues) expressed in Escherichia coli BL21 (RIL) cells using (6-FAM)TGGCAATATCAGCTCCACA(MGBNFQ) DNA probe as substrate measured after 5 to 90 mins by fluorescence assay
# Parameters: species or system Influenza A virus (A/California/04/2009(H1N1))
row,SMILES,pIC50
1,O=c1[nH]cc(Br)cc1O,4.80
2,O=C(O)c1ccc(-c2cc(O)c(=O)[nH]c2-c2ccc(F)cc2)cc1,7.96
